Reference: the supplement of paper PMC5412046

Experiments:
SB.mhdgc-1 [1] = experiment: viability at highest tested concentration (MAXR) relative to DMSO; higher = less cytotoxic; conditions: SB.mhdgc-1 (hereditary c.1380delA CDH1 gastric cancer)
How it was run: (§1)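 Hereditary or sporadic patient-derived gastric cancer cells (500 cells in 5 μL medium per 1536 well) received 23 nL compound in DMSO by pintool at 11 threefold-diluted concentrations, with the top concentration recorded per compound. After 48 h, CellTiter-Glo was added for 30 min at room temperature and luminescence read on a ViewLux. Values are DMSO-normalised viability, either at the highest concentration or as trapezoidal area under the curve.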

SB.msgc-1 [2] = experiment: as above; conditions: SB.msgc-1 (sporadic gastric cancer)
How it was run: as §1

SB.mhdgc-1 [3] = experiment: area under the dose-response curve of % viability (trapezoidal, 11 doses) (% viability x log10 concentration); higher = less cytotoxic; conditions: SB.mhdgc-1 (hereditary c.1380delA CDH1 gastric cancer)
How it was run: as §1

SB.msgc-1 [4] = experiment: as above; conditions: SB.msgc-1 (sporadic gastric cancer)
How it was run: as §1

Structure (SMILES) | viability (SB.mhdgc-1 [1]) [%] | viability (SB.msgc-1 [2]) [%] | area under the dose-response curve (SB.mhdgc-1 [3]) | area under the dose-response curve (SB.msgc-1 [4])
N=C1N[C@H]2[C@H](CS[C@H]2CCCCC(=O)O)N1 [2-Iminobiotin] (top concentration 23.0415 µM) | 122 | 124 | 624 | 592
COc1cc2c(cc1O)CCC1C2CC[C@@]2(C)C1CC[C@@H]2O (stereo partly specified) [2-Methoxyestradiol] (top concentration 46.0829 µM) | 82.1 | 87 | 526 | 538
Cn1cnc(N)c2ncnc1-2 [3-Methyladenine] (top concentration 46.0829 µM) | 81.8 | 7.12 | 455 | 402
O=C(O)CCCc1c[nH]c2ccccc12 [3-indolebutyric acid] (top concentration 46.0829 µM) | 126 | 87.7 | 544 | 539
COc1cc([C@@H]2c3cc4c(cc3[C@@H](O)C3COC(=O)C32)OCO4)cc(OC)c1O (stereo partly specified) [4-Demethylepipodophyllotoxin] (top concentration 46.0829 µM) | 44.7 | 50.3 | 357 | 377
Nc1ncnc2ccccc12 [4-Quinazolinamine] (top concentration 46.0829 µM) | 66.4 | 99.5 | 545 | 509
C\C1=C\C(=O)OC2=C1C=CC(=C2)O [4-methylumbelliferone] (top concentration 46.0829 µM) | 103 | 86.3 | 602 | 500
OC1=CC2=C(C(=C1)O)C(=O)\C=C(/O2)C3=CC=CC=C3 [5,7-Dihydroxyflavone] (top concentration 46.0829 µM) | 80.3 | 96.1 | 566 | 472
NC/1=N/C(=O)N(/C=N1)[C@@H]2O[C@H](CO)[C@@H](O)[C@H]2O [5-Azacitidine] (top concentration 46.0829 µM) | 31.6 | 19.9 | 501 | 392
N[C@@H](Cc1c[nH]c2ccc(O)cc12)C(=O)O [5-Hydroxytryptophan] (top concentration 46.0829 µM) | 83.1 | 72.9 | 400 | 505
CC(=O)O/N=C1/C(=C2\C(=O)Nc3cc(Br)ccc32)Nc2ccccc21 [6-Bromoindirubin-3'-acetoxime] (top concentration 46.0829 µM) | 0.814 | 0.124 | 418 | 426
S=C1N\C=N/C2=C1[NH]C=N2 [6-mercaptopurine] (top concentration 46.0829 µM) | 101 | 35.8 | 513 | 458
CC(=O)OC\C1=C(\[N@]2[C@@H](SC1)[C@H](N)C2=O)C(O)=O [7-Aminocephalosporanic acid] (top concentration 46.0829 µM) | 86.8 | 112 | 512 | 532
CN[C@@H]1C[C@H]2O[C@@](C)([C@@H]1OC)n1c3ccccc3c3c4c(c5c6ccccc6n2c5c31)C(=O)N[C@H]4O [7-Hydroxystaurosporine] (top concentration 46.0829 µM) | 2.27 | 17.2 | 220 | 344
Nc1ncnc2c1nc(Cl)n2[C@@H]1O[C@H](CO)[C@@H](O)[C@H]1O [8-Cl-Ado] (top concentration 46.0829 µM) | 17.6 | 38 | 518 | 503
CC(=O)O[C@@]12CO[C@@H]1C[C@H](O)[C@]3(C)[C@@H]2[C@H](OC(=O)C4=CC=CC=C4)[C@]5(O)C[C@H](O)/C(=C(/[C@@H](O)C3=O)C5(C)C)C [10-Deacetylbaccatin] (top concentration 46.0829 µM) | 61 | 46.1 | 451 | 448
CC[C@@]1(O)C(=O)OCC/2=C1/C=C3\N(CC4=CC5=CC(=CC=C5N=C34)O)C2=O [10-hydroxycamptothecin] (top concentration 46.0829 µM) | 57.5 | 23.5 | 285 | 327
CCCCC(C)(C)[C@H](O)/C=C/[C@H]1[C@H](O)CC(=O)[C@@H]1C/C=C\CCCC(=O)O [16,16-dimethyl PGE2] (top concentration 46.0829 µM) | 57.3 | 57.8 | 522 | 538
CCC(=O)O[C@@]1(CC[C@H]2[C@@H]3CCC/4=C/C(=O)CC[C@]4(C)[C@H]3CC[C@]12C)C(=O)CO [17 alpha-propionate] (top concentration 46.0829 µM) | 98 | 88.7 | 555 | 506
